Test results reported in patent publication US20230069722A1, “TUBULYSINS AND PROTEIN-TUBULYSIN CONJUGATES” (priority 2020, published 2023).
Like-named read-outs stand apart in the source and are kept apart here.

System: HCT15 cells
Experiment: MDR cell based killing assay, HCT15 cells with or without Verapamil (CellTiter-Glo)
Design: species or system human
Conditions: Homo sapiens
Experimental: To test the ability of the disclosed tubulysin payloads or prodrug payloads to kill human cell lines, an in vitro cytotoxicity assay can be performed. In vitro cytotoxicity of the disclosed payloads, as well as reference compounds, are evaluated using the CellTiter-Glo Assay Kit (Promega, Cat # G7573), in which the quantity of ATP present is used to determine the number of viable cells in culture. For the assay, C4-2, HEK293, or T47D cells are seeded at 4000 cells/well on Nunclon white 96-well plates in complete growth medium (DME high glucose:Ham's F12 at 4:1, 10% FBS, 100 units/ml Penicillin, 100 ug/ml streptomycin, 53 ug/ml glutatmine, 10 ug/ml insulin, 220 ng/ml biotin, 12.5 pg/ml T3, 12.5 ug/ml Adenine, 4 ug/ml transferrin for C42 cells; DME high glucose, 10% FBS, 100 units/ml Penicillin, 100 ug/ml streptomycin, 53 ug/ml glutatmine for HEK293; RPMI, 10% FBS, 100 units/ml Penicillin, 100 ug/ml streptomycin, 53 ug/ml glutatmine, 10 ug/ml insulin, 10 mM HEPEs, 200 nM Sodium Pyruvate for T47D cells) and grown overnight at 37° C. in 5% CO2. For cell viability curves, 1:3 serially diluted payloads are added to the cells at final concentrations ranging from 100 nM to 15 pM, including a no treatment control group, and are then incubated for 5 days. After the 5-day incubation, cells are incubated at room temperature with 100 μL of CellTiter-Glo reagents for 10 minutes. Relative luminescence units (RLU) can be determined on a Victor plate reader (PerkinElmer). The IC50 values are determined from a four-parameter logistic equation over a 10-point response curve (GraphPad Prism). All IC50 values are expressed in molar (M) concentration. The percent cell killing (% kill) at the maximum concentration tested is estimated from the following formula (100−% viable cells). Averages±standard deviation (SD) can be included where replicate experiments are performed.
In vitro cytotoxicity of the disclosed payloads as well as reference compounds are evaluated similarly as described above except using 1000 HCT15 cells, a colorectal carcinoma cell line, in growth medium (RPMI, 10% FBS, 100 units/ml Penicillin, 100 ug/ml streptomycin, 53 ug/ml glutatmine) with or without 5 ug/mL of Verapamil.
For each payload or prodrug payload, the HCT-15 IC50 in the absence of Verapamil is divided by the HCT-15 IC50 in the presence of Verapamil (HCT-15 IC50/HCT-15+Verapamil IC50). […] The reference compound, (MMAE), can have a ratio of 23.7. […]

[1] = HCT-15, read-out: HCT-15 with verapamil IC50

Row | Structure (SMILES) | IC50 (HCT-15, read-out: HCT-15 IC50) [nM] | IC50 [1] [nM]
1 | CCCCCCN(C(=O)[C@@H](NC(=O)[C@H]1CCCCN1C)[C@@H](C)CC)[C@H](C[C@@H](OC(C)=O)c1nc(C(=O)N[C@@H](Cc2ccc(F)cc2)CC(C)(C)C(=O)NS(=O)(=O)c2ccc(CN)cc2)cs1)C(C)C [Compound P46, (1R,3R)-1-(4-{[(2S)-4-{[4-(aminomethyl)benzenesulfonyl]carbamoyl}-1-(4-fluorophenyl)-4,4-dimethylbutan-2-yl]carbamoyl}-1,3-thiazol-2-yl)-3-[(2S,3S)—N-hexyl-3-methyl-2-{[(2R)-1-methylpiperidin-2-yl]formamido}pentanamido]-4-methylpentyl Acetate] | > 100 | –
2 | CCCCCCN(C(=O)[C@@H](NC(=O)[C@H]1CCCCN1C)[C@@H](C)CC)[C@H](C[C@@H](OC(=O)NCCOCCOCCOCCN)c1nc(C(=O)N[C@@H](Cc2ccc(F)cc2)CC(C)(C)C(=O)O)cs1)C(C)C [Compound P11, (4S)-4-({2-[(1R,3R)-1-{[(2-{2-[2-(2-aminoethoxy)ethoxy]ethoxy}ethyl)carbamoyl]oxy}-3-[(2S,3S)—N-hexyl-3-methyl-2-{[(2R)-1-methylpiperidin-2-yl]formamido}pentanamido]-4-methylpentyl]-1,3-thiazol-4-yl}formamido)-5-(4-fluorophenyl)-2,2-dimethylpentanoic Acid] | 157 | –
3 | CCCCCCN(C(=O)[C@@H](NC(=O)[C@H]1CCCCN1C)[C@@H](C)CC)[C@H](C[C@@H](OC(C)=O)c1nc(C(=O)NS(=O)(=O)c2ccc(CN)cc2)cs1)C(C)C [Compound P42, (1R,3R)-1-(4-{[4-(aminomethyl)benzenesulfonyl]carbamoyl}-1,3-thiazol-2-yl)-3-[(2S,3S)—N-hexyl-3-methyl-2-{[(2R)-1-methylpiperidin-2-yl]formamido}pentanamido]-4-methylpentyl Acetate] | > 100 | 48.4
4 | CCCCCCN(C(=O)[C@@H](NC(=O)[C@H]1CCCCN1C)[C@@H](C)CC)[C@H](C[C@@H](OC(C)=O)c1nc(C(=O)N[C@@H](Cc2ccc(F)cc2)CC(C)(C)C(=O)NS(=O)(=O)c2ccc(N)cc2)cs1)C(C)C [Compound P47, (1R,3R)-1-(4-{[(2S)-4-[(4-aminobenzenesulfonyl)carbamoyl]-1-(4-fluorophenyl)-4,4-dimethylbutan-2-yl]carbamoyl}-1,3-thiazol-2-yl)-3-[(2S,3S)—N-hexyl-3-methyl-2-{[(2R)-1-methylpiperidin-2-yl]formamido}pentanamido]-4-methylpentyl Acetate] | 53.5 | –
5 | CCCCCCN(C(=O)[C@@H](NC(=O)[C@H]1CCCCN1)[C@@H](C)CC)[C@H](C[C@@H](OC(C)=O)c1nc(C(=O)N[C@@H](Cc2ccc(N)c(F)c2)CC(C)(C)C(=O)O)cs1)C(C)C [Compound P12, (4S)-4-({2-[(1R,3R)-1-(acetyloxy)-3-[(2S,3S)—N-hexyl-3-methyl-2-[(2R)-piperidin-2-ylformamido]pentanamido]-4-methylpentyl]-1,3-thiazol-4-yl}formamido)-5-(4-amino-3-fluorophenyl)-2,2-dimethylpentanoic Acid] | 0.34 | 0.03
6 | CCCCCCN(C(=O)[C@@H](NC(=O)[C@H]1CCCCN1C)[C@@H](C)CC)[C@H](C[C@@H](O)c1nc(C(=O)N[C@@H](Cc2ccc(N)c(F)c2)CC(C)(C)C(=O)O)cs1)C(C)C [Compound P1, (4S)-5-(4-amino-3-fluorophenyl)-4-({2-[(1R,3R)-3-[(2S,3S)—N-hexyl-3-methyl-2-{[(2R)-1-methylpiperidin-2-yl]formamido}pentanamido]-1-hydroxy-4-methylpentyl]-1,3-thiazol-4-yl}formamido)-2,2-dimethylpentanoic Acid] | 3 | 0.26
7 | C#CCCCON(C(=O)[C@@H](NC(=O)[C@H]1CCCCN1C)[C@@H](C)CC)[C@H](C[C@@H](OC(C)=O)c1nc(C(=O)N[C@@H](Cc2ccc(N)cc2)CC(C)(C)C(=O)O)cs1)C(C)C [Compound P34, (4S)-4-({2-[(1R,3R)-1-(acetyloxy)-4-methyl-3-[(2S,3S)-3-methyl-2-{[(2R)-1-methylpiperidin-2-yl]formamido}-N-(pent-4-yn-1-yloxy)pentanamido]pentyl]-1,3-thiazol-4-yl}formamido)-5-(4-aminophenyl)-2,2-dimethylpentanoic Acid] | 0.41 | 0.24
8 | CCCCCCN(C(=O)[C@@H](NC(=O)[C@H]1CCCCN1C)[C@@H](C)CC)[C@H](C[C@@H](OC(=O)NCCN)c1nc(C(=O)N[C@@H](Cc2ccc(N)c(F)c2)CC(C)(C)C(=O)O)cs1)C(C)C [Compound P5, (4S)-5-(4-amino-3-fluorophenyl)-4-({2-[(1R,3R)-1-{[(2-aminoethyl)carbamoyl]oxy}-3-[(2S,3S)—N-hexyl-3-methyl-2-{[(2R)-1-methylpiperidin-2-yl]formamido}pentanamido]-4-methylpentyl]-1,3-thiazol-4-yl}formamido)-2,2-dimethylpentanoic Acid] | 38.6 | 4.44
9 | CCCCCCN(C(=O)[C@@H](NC(=O)[C@H]1CCCCN1C)[C@@H](C)CC)[C@H](C[C@@H](OC(C)=O)c1nc(C(=O)NS(=O)(=O)c2ccc(N)cc2)cs1)C(C)C [Compound P43, (1R,3R)-1-{4-[(4-aminobenzenesulfonyl)carbamoyl]-1,3-thiazol-2-yl}-3-[(2S,3S)—N-hexyl-3-methyl-2-{[(2R)-1-methylpiperidin-2-yl]formamido}pentanamido]-4-methylpentyl Acetate] | 4.99 | 1.42
10 | C#CCCCON(C(=O)[C@@H](NC(=O)[C@H]1CCCCN1C)[C@@H](C)CC)[C@H](C[C@@H](O)c1nc(C(=O)N[C@@H](Cc2ccc(N)cc2)CC(C)(C)C(=O)O)cs1)C(C)C [Compound P33, (4S)-5-(4-aminophenyl)-4-({2-[(1R,3R)-1-hydroxy-4-methyl-3-[(2S,3S)-3-methyl-2-{[(2R)-1-methylpiperidin-2-yl]formamido}-N-(pent-4-yn-1-yloxy)pentanamido]pentyl]-1,3-thiazol-4-yl}formamido)-2,2-dimethylpentanoic Acid] | 81.7 | 28.1
11 | CCCCCCN(C(=O)[C@@H](NC(=O)[C@H]1CCCCN1C)[C@@H](C)CC)[C@H](C[C@@H](O)c1nc(C(=O)N[C@@H](Cc2ccc(N)cc2)CC(C)(C)C(=O)O)cs1)C(C)C [Compound P6, (4S)-5-(4-aminophenyl)-4-({2-[(1R,3R)-3-[(2S,3S)—N-hexyl-3-methyl-2-{[(2R)-1-methylpiperidin-2-yl]formamido}pentanamido]-1-hydroxy-4-methylpentyl]-1,3-thiazol-4-yl}formamido)-2,2-dimethylpentanoic Acid] | 16.3 | 0.78
12 | CCCCCCN(C(=O)[C@@H](NC(=O)[C@@]1(C)CCCN1)[C@@H](C)CC)[C@H](C[C@@H](OC(C)=O)c1nc(C(=O)N[C@@H](Cc2ccc(O)cc2)CC(C)(C)C(=O)O)cs1)C(C)C [Compound P22, (4S)-4-({2-[(1R,3R)-1-(acetyloxy)-3-[(2S,3S)—N-hexyl-3-methyl-2-{[(2R)-2-methylpyrrolidin-2-yl]formamido}pentanamido]-4-methylpentyl]-1,3-thiazol-4-yl}formamido)-5-(4-hydroxyphenyl)-2,2-dimethylpentanoic Acid] | 0.27 | 0.08
13 | CCCCCCN(C(=O)[C@@H](NC(=O)[C@@]1(C)CCCN1C)[C@@H](C)CC)[C@H](C[C@@H](OC(C)=O)c1nc(C(=O)N[C@@H](Cc2ccc(N)cc2)CC(C)(C)C(=O)O)cs1)C(C)C [Compound P19, (4S)-4-({2-[(1R,3R)-1-(acetyloxy)-3-[(2S,3S)-2-{[(2R)-1,2-dimethylpyrrolidin-2-yl]formamido}-N-hexyl-3-methylpentanamido]-4-methylpentyl]-1,3-thiazol-4-yl}formamido)-5-(4-aminophenyl)-2,2-dimethylpentanoic Acid] | 0.2 | 0.01
14 | CCCCCCN(C(=O)[C@@H](NC(=O)[C@@]1(C)CCCN1)[C@@H](C)CC)[C@H](C[C@@H](OC(=O)NC)c1nc(C(=O)N[C@@H](Cc2ccc(O)cc2)CC(C)(C)C(=O)O)cs1)C(C)C [Compound P23, (4S)-4-({2-[(1R,3R)-3-[(2S,3S)—N-hexyl-3-methyl-2-{[(2R)-2-methylpyrrolidin-2-yl]formamido}pentanamido]-4-methyl-1-[(methylcarbamoyl)oxy]pentyl]-1,3-thiazol-4-yl}formamido)-5-(4-hydroxyphenyl)-2,2-dimethylpentanoic Acid] | 3.6 | 0.06
